Reference: patent US20090092662A1, “LIPOSOME FORMULATIONS OF BORONIC ACID COMPOUNDS” (priority 2007, published 2009)
Where two headings read alike, the source gives them in different places.

Key:
[1] = system: tumor lines; settings: range of tumor lines, NCI in vitro screen; cited from earlier work
[2] = system: human prostate cancer xenograft; settings: human prostate xenograft model; cited from earlier work
[3] = system: lung cancer xenograft; settings: lung cancer xenograft model; cited from earlier work
[4] = cited from earlier work
[5] = ITC drug binding study of complexing reagents to bortezomib; settings: pH 9.5, 100 mM glycine, 30° C., bortezomib titrated into complexing reagent
Experimental: The binding of the various complexing reagents to bortazomib were investigated by isothermal titration calorimetry (VP-ITC, MicroCal, Northampton, Mass.) under controlled parameters. […] The pH level was checked twice and adjustments were made as necessary to within 0.2 units. The solutions were degassed for 10-15 min. […] The experiments were conducted at 30° C. […] Data processing to generate the binding parameters was performed using the software program provided by the ITC manufacture (Microcal origin v5.0).

| K [5] [mol⁻¹] | SMILES | cytotoxicity [1] | antitumor activity [2] | antitumor activity [3] | maximum tolerated dose ([4]; intravenous bolus on days 1, 4, 8, and 11 of a 3-week cycle) [mg/m^2] | maximum tolerated dose ([4]; intravenously once or twice weekly, patients with solid tumors) [mg/m^2] |
| --- | --- | --- | --- | --- | --- | --- |
|  | CC(C)C[C@H](NC(=O)[C@H](Cc1ccccc1)NC(=O)c1cnccn1)B(O)O [bortezomib] | showed cytotoxicity against a range of tumor lines | had antitumor activity | had antitumor activity | 1.56 | 1.3 |
| 2366 | OCC(O)CNCC(O)C(O)C(OC1OC(CO)C(O)C(O)C1O)C(O)CO (stereo not drawn) [Example 5] |  |  |  |  |  |
